# Results: patent US20210386826A1, “Combination for Treating Cancer” (Pfizer Inc., priority 2018, published 2021)
# Biological target: IL-2Rαβ (Homo sapiens, UniProt P01589+P14784)
# From the text: The term “CD-122-biased cytokine agonist” (also referred to as an interleukin-2 receptor beta (ILRβ), selective agonist) as used herein, refers to an agonist that has a greater affinity for binding to IL-2Rβ than to IL-2Rαβ.
# Chain of IL-2Rαβ (P01589 22-240 limits assumed): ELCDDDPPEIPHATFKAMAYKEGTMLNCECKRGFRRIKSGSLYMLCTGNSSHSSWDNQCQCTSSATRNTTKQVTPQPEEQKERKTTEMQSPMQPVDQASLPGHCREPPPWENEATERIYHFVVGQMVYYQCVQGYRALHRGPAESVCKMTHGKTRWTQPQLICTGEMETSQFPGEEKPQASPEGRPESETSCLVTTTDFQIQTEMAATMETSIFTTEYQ
# Chain of IL-2Rαβ (P14784 27-240 limits assumed): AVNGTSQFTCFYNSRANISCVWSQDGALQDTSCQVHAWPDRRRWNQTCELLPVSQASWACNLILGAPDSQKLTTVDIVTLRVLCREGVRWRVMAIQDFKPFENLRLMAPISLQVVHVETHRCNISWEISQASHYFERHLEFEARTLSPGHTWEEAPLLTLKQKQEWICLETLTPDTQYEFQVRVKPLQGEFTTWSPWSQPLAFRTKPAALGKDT
substance,measurement,value
"(2,7-(bis-methoxyPEG10kD-carboxyamide)(9H-fluorene-9-yl)methyl N-carbamate)6avg interleukin-2 [bempegaldesleukin]",decrease in affinity to IL-2Rαβ relative to IL-2,~60 fold
